Laboratory results: PMC7495481, “Sequence specificity analysis of the SETD2 protein lysine methyltransferase and discovery of a SETD2 super-substrate” (Communications Biology, 2020)
“And” between values parts separate entries of the source, which are not always exact repeats. Equal entries are not always repeated.

target: T1, SETD2 (Homo sapiens, UniProt Q9BYW2); assay: Peptide SPOT array methylation of H3K36 (29–43) variants, super-substrate design (Fig. 2a); assay type: biochemical; settings: SPOT array; 0.76 µM radioactive AdoMet, 3–6 µM SETD2, 60 min, pH 9; autoradiography
T1 construct: SETD2 catalytic SET domain (amino acids 1347–1711, UniProt No: Q9BYW2); made in house; host or cells: E. coli
T1 sequence (Q9BYW2 1347-1711): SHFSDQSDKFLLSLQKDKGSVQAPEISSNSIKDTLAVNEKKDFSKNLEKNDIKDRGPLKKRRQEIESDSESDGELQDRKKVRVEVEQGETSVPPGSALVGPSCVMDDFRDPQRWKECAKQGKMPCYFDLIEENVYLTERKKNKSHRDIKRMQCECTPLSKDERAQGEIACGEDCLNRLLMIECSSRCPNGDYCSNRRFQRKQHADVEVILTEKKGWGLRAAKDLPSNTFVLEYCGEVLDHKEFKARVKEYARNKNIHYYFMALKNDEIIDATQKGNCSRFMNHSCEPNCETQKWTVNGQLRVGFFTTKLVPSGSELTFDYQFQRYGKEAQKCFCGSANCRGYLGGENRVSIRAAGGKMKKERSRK
Text: Based on these observations, we aimed to explore, if better substrates than H3K36 can be designed for SETD2. We synthesized peptide SPOT arrays including H3K36 (29–43) as a positive control and the H3K36A mutant as a negative control, in which up to 5 combined mutations were systematically introduced that converted the original H3K36 residues into residues that are more favored (Fig. 2a and Supplementary Table 1). This peptide array was methylated by SETD2 as described above and the methylation signal was captured by autoradiography.
Fig. 2 Design of an optimized SETD2 peptide substrate and analysis of its methylation. a Variants of the H3K36 (29–43) peptide containing up to five mutations (Supplementary Table 1) were synthesized on a cellulose membrane and methylated by SETD2. The signal of the transferred radioactive methyl groups was detected by autoradiography. Spots A1 and B15 contain the H3K36 sequence, A2 and B16 the H3K36A peptide. Two films with different exposure times are shown to visualize weaker methylated spots as well. b Comparison of the methylation of purified super-substrate (ssK36) and the H3K36 peptides. […] Methylation reactions were conducted using 20 µM peptide and 6 µM enzyme. The lower panels display autoradiography films after different exposure times allowing to compare the methylation levels of the different samples. For comparison, different dilutions of the methylated ssK36 were loaded as indicated. c Time course of ssK36 peptide methylation determined under single turnover conditions using 5 µM substrate and 6 µM enzyme. […] The gels with the radioactive ssK36 (5 µl loaded per well) and H3K36 peptides (20 µl loaded per well) were exposed together to the same x-ray film. […] An enlargement of the H3K36 data with adjusted y-axis scale is shown in Supplementary Fig. 3d.
(§1) Peptide arrays containing fifteen amino acid long peptides were synthesized using the SPOT synthesis method[48] with an Autospot peptide array synthesizer (Intavis AG, Köln, Germany). After synthesis, the obtained membranes were pre-incubated in methylation buffer (20 mM Tris/HCl pH 9, 0.01% Triton X-100, 10 mM DTT, 1.5 mM MgCl2) for 5 min on a shaker. Thereafter, the membranes were incubated in methylation buffer supplemented with 0.76 µM radioactively labeled AdoMet (PerkinElmer) and 3–6 µM SETD2 enzyme for 60 min on a shaker. After methylation, the membranes were washed 5 times for 5 min in wash buffer (100 mM NH4HCO3, 1% SDS) and incubated in amplify NAMP100V (GE Healthcare) for 5 min. This was followed by the exposure of the membranes to a hyperfilm^TM high performance autoradiography (GE Healthcare) film at −80 °C in the dark. The films were developed with an Optimax Typ TR machine after different exposue times. For quantification the signal intensities were measured with the Phoretix^TM software and analyzed with Microsoft Excel.

Sequence | peptide array methylation of H3K36 variants (in words)
APRFGGVKRPHRYRP [A31R/T32F/K37R] | stepwise improvement of activity with increasing number of mutations

target: T1, SETD2; assay: Peptide SPOT array target lysine methylation of selected non-histone peptides (Fig. 3b); assay type: biochemical; settings: Exp1–Exp3, 3–6 µM SETD2, 0.76 µM AdoMet, 60 min, pH 9
Text: However, we could identify 166 possible targets, which contain partial matches to the substrate specificity profile. The possible methylation of these 166 putative substrates was investigated at the peptide level. For this, fifteen amino acid long peptides containing the sequence of the non-histone targets surrounding the predicted target lysine were synthesized on a membrane. The H3K36 (29–43) peptide (spots A1, I9), the super-substrate peptide (spots A3, I11) and the corresponding lysine to alanine mutation peptides (spot A2, I10, and A4, I12) were included as positive and negative controls (Fig. 3a, Supplementary Fig. 4 and Supplementary Table 2). The methylation reactions and the detection of the methylation signals were performed in duplicates as described above. We observed that all of the investigated peptides were more weakly methylated than the super-substrate peptide. […] In the next step, 20 of the peptides were selected for further investigation based on the methylation intensity and the known functions of the proteins to confirm the methylation at the predicted target site. The peptides were synthesized on another membrane, now including the target lysine to alanine mutation control peptides in each case. The methylation reactions and the detection of the signal were conducted as described above (Fig. 3b, Supplementary Fig. 5 and Supplementary Table 3).
Fig. 3 Identification of non-histone substrates of SETD2. a Candidate non-histone peptide substrates were identified in the human proteome based on the SETD2 super-substrate specificity profile. The peptides were synthesized on a peptide SPOT array (Supplementary Table 2) and methylated by SETD2. As controls, the H3K36, H3K36A, ssK36 and ssK36A peptides were included on spots A1–A4 and I9–I12. The autoradiography image is an example of the obtained results. […] The quantification of the data of two experiments is shown in Supplementary Fig. 4. b Analysis of target lysine methylation of selected non-histone substrate peptides. Peptide SPOT arrays were synthesized containing the non-histone peptide substrates identified in panel A in addition to the lysine to alanine mutations presented on the array as every second spot (Supplementary Table 3). As controls, the H3K36, H3K36A, ssK36, and ssK36A mutant peptides were included on spot A1–A4 and C5–C8. The autoradiography image is an example of the obtained results. The quantification of the data of three experiments is shown in Supplementary Fig. 5. Peptides selected for furhter analysis are highlighted by blue circles. c Protein methylation of FBN1 and confirmation of the target lysine methylation. Both wild type (WT) and mutant (K666R) FBN1 were purified and equal amounts were methylated by SETD2 (2 µM). […] The size of FBN1 is indicated by an asterisk.
as §1

Sequence | Relative methylation signal, Average
GAIIGFIAVGYKKLF [ATAT K to A, target lysine to alanine control] | 0.4571
RRGIGYLALICFLIP [ANKAR K to A, target lysine to alanine control] | 0.01267
LHNRGALKLTTGKCV [SIA8D, CMP-N-acetylneuraminate-poly-alpha-2,8-sialyltransferase peptide, target lysine 350] | 0.4366
CRKLGGVAKSATFRS [TPD55 K to A, target lysine to alanine control] | 0.6652
STCYGGYARGQCIKP [FBN1 K to A, target lysine to alanine control] | 0.2279
GHPFGYLKASTALNC [INT6, Integrator complex subunit 6 peptide, target lysine 369] | 0.398
ATFLGYFASGLKYKK [GELS K to A, target lysine to alanine control] | 0.4943
YCLIGGVAMTRFICK [DLEC1 K to A, target lysine to alanine control] | 0.4812
KRIYGGFASTAGKHP [HABP2 K to A, target lysine to alanine control] | 0.2122
YCLIGGVKMTRFICK [DLEC1, Deleted in lung and esophageal cancer protein 1 peptide, target lysine 494] | 0.8047
KAPRGFLARVFKRKK [CENPW K to A, target lysine to alanine control] | 0.3763
DDLYGAIKKLCCVQS [PIWL2, Piwi-like protein 2 peptide, target lysine 685] | 0.4271
LICIGALAKLCNHPC [RA54B K to A, target lysine to alanine control] | 0.4423
LWKIGFFKRPLKKKM [ITA1, Integrin alpha-1 peptide, target lysine 1170] | 0.4107
KRIYGGFKSTAGKHP [HABP2] | 0.2413
AGARGYLATSLCVLG [DYSF K to A, target lysine to alanine control] | 0.01828
KDVIGAFKKVFACCS [O2T11, Olfactory receptor 2T11 peptide, target lysine 299] | 0.408
LICIGALKKLCNHPC [RA54B, DNA repair and recombination protein RAD54B peptide, target lysine 589] | 0.598
ATFLGYFKSGLKYKK [GELS, Gelsolin peptide, target lysine 162] | 0.5433

Sequence | Relative methylation signal, Average
TPPLGGYKVTAKCFG [HDAC9, Histone deacetylase 9 peptide, target lysine 927] | 0.7696
KDVIGAFAKVFACCS [O2T11 K to A, target lysine to alanine control] | 0.2642
LHNRGALALTTGKCV [SIA8D K to A, target lysine to alanine control] | 0.2965
CRKLGGVKKSATFRS [TPD55, Tumor protein D55 peptide, target lysine 112] | 0.7056
GHPFGYLAASTALNC [INT6 K to A, target lysine to alanine control] | 0.2106
GAIIGFIKVGYKKLF [ATAT, Alpha-tubulin N-acetyltransferase 1 peptide, target lysine 98] | 0.7722
YGPFGYIANPYNIFD [CAC1G K to A, target lysine to alanine control] | 0.03839
EMSIGAIKIALEISL [HMCN1, Hemicentin-1 peptide, target lysine 127] | 0.3311
KAPRGFLKRVFKRKK [CENPW, Centromere protein W peptide, target lysine 23] | 0.677
RRGIGYLKLICFLIP [ANKAR, Ankyrin and armadillo repeat-containing protein peptide, target lysine 317] | 0.4211
LWKIGFFARPLKKKM [ITA1 K to A, target lysine to alanine control] | 0.403
TPPLGGYAVTAKCFG [HDAC9 K to A, target lysine to alanine control] | 0.4627
YGPFGYIKNPYNIFD [CAC1G, Voltage-dependent T-type calcium channel subunit alpha-1G peptide, target lysine 804] | 0.9453
APRFGGVARPNRYRP [DS K to A, super-substrate K36A peptide, negative control] | 0.1136 and 0.1005
STCYGGIAKGVCVRP [FBN2 K to A, target lysine to alanine control] | 0.3693
DDLYGAIAKLCCVQS [PIWL2 K to A, target lysine to alanine control] | 0.3265
STCYGGIKKGVCVRP [FBN2, Fibrillin-2 peptide, target lysine 711] | 0.6873
EMSIGAIAIALEISL [HMCN1 K to A, target lysine to alanine control] | 0.09371
AGARGYLKTSLCVLG [DYSF, Dysferlin peptide, target lysine 338] | 0.2902
